Reference: patent US20190209569A1, “PHARMACEUTICAL COMPOSITION FOR SUPPRESSING APPETITE, CONTAINING N2-(M-TRIFLUOROBENZYL), N6-(P-NITROBENZYL)PURINE (TNP) OR PHARMACEUTICALLY ACCEPTABLE SALT THEREOF AS ACTIVE INGREDIENT” (priority 2016, published 2019)

Assays:
food intake = test: Effect of single administration of TNP in the third ventricle on food intake; type: in vivo, mouse
Experimental: (§1) Adult male C57BL/6 mice were purchased from Orient Bio (Gyeonggi-do, Korea) and the mice were allowed to take the standard diet (Agri Purina, Seoul, Korea) freely. The mice were raised in the controlled condition (temperature: 22±1° C., light/dark cycle: 12/12 hr (light condition: 8:00 am˜8:00 pm)). A cannula was intubated in the third ventricle of the mouse for the administration of TNP. For the cannulation, the mouse was anesthetized with a mixture of Zoletil and Rumpun (2:1 v/v, 10 μl/g weight) and then a permanent 26-gauge stainless steel cannula was inserted in the third ventricle of the mouse. The insertion position of the cannula was 1.8 mm back from the bregma and 5.0 mm down from the sagittal sinus. The exact cannulation site was confirmed by the positive dipsogenic response after the administration of angiotensin II (50 ng). Only those mice that were confirmed to have cannulae in the correct location were used for data analysis. After the 7 day recovery period, the mice were massaged every day for 1 week in order to minimize the stress response to the experiment.
The mice cannulated in Example 1 were fasted for 18 hours and then administered at different concentrations of TNP (0.4 pg, 0.04 ng, and 0.4 ng; Calbiochem) in the early light phase (9:00 am˜11:00 am). Before the administration, TNP was dissolved in 0.9% saline. 2 μl of the TNP dissolved in saline at different concentrations (0.4 pg, 0.04 ng, and 0.4 ng) was administered via the cannula into the third ventricle. For the control, the same amount of saline was administered.
5 mice treated with saline, 5 mice treated with 0.4 pg of TNP, 5 mice treated with 0.04 ng of TNP, and 4 mice treated with 0.4 ng of TNP were fasted for 18 hours as described in Example 2. TNP was administered once into the third ventricle of the mice. Then, the mice were allowed to take food freely and the food intake was measured for 24 hours.
All experimental values of the present invention were expressed as mean±standard error ([…]). Statistical analysis was performed by Student's t-test. […]

weight gaining = test: Effect of single administration of TNP in the third ventricle on weight control; type: in vivo, mouse; conditions: mice fasted for 18 hours; single administration of 0.4 pg, 0.04 ng or 0.4 ng into the third ventricle; observed for 24 hours; FIG. 2
Experimental: as §1
The mice cannulated in Example 1 were fasted for 18 hours and then administered at different concentrations of TNP (0.4 pg, 0.04 ng, and 0.4 ng; Calbiochem) in the early light phase (9:00 am˜11:00 am). Before the administration, TNP was dissolved in 0.9% saline. […]

[1] = single administration into the third ventricle, 0.4 pg, 0.04 ng, 0.4 ng, vs saline

SMILES: O=[N+]([O-])c1ccc(CNc2nc(NCc3cccc(C(F)(F)F)c3)nc3[nH]cnc23)cc1 [TNP, N2-(m-Trifluorobenzyl), N6-(p-nitrobenzyl)purine]
- food intake compared to the mice administered with saline (food intake; male C57BL/6 mice fasted for 18 hours, single administration of 0.4 pg, 0.04 ng or 0.4 ng into the third ventricle, food intake measured for 24 hours, FIG. 1): significantly reduced
- time after administration at which the food intake reduction effect was still maintained (food intake; [1]): ≥ 24 h
- time after administration from which the food intake reduction effect was significant (food intake; [1]): 2 h
- weight gaining compared to the control mice treated with saline (weight gaining): significantly suppressed
